Test results as given in ChEMBL document CHEMBL4346657, “Anticancer activity, dual prooxidant/antioxidant effect and apoptosis induction profile of new bichalcophene-5-carboxamidines” (Eur J Med Chem, 2019).
Active and inactive are the calls of the source. No cut-off for these calls is given here.

Experiments:
[1] = test system: Panel NCI-60 (60 carcinoma cell lines); assay: Antiproliferative activity against human NCI60 cells assessed as growth inhibition after 48 hrs by sulforhodamine B assay; assay type: functional
WI-38 = assay: Cytotoxicity activity against human WI38 cells assessed as reduction in cell viability measured after 48 hrs by MTT assay; assay type: cell-based; conditions: WI-38, 48 h
[2] = Selectivity index, ratio of IC50 for human WI38 cells to GI50 for human NCI60 cells
MDA-MB-231 = assay: Antiproliferative activity against human MDA-MB-231/ATCC cells assessed as growth inhibition after 48 hrs by sulforhodamine B assay; assay type: functional; conditions: MDA-MB-231, 48 h
SN12C = assay: Antiproliferative activity against human SN12C cells assessed as growth inhibition after 48 hrs by sulforhodamine B assay; assay type: functional
RXF 393 = assay: Antiproliferative activity against human RXF393 cells assessed as growth inhibition after 48 hrs by sulforhodamine B assay; assay type: functional; conditions: RXF 393, 48 h
CAKI-1 = assay: Antiproliferative activity against human CAKI-1 cells assessed as growth inhibition after 48 hrs by sulforhodamine B assay; assay type: functional; conditions: CAKI-1, 48 h
786-0 = assay: Antiproliferative activity against human 786-0 cells assessed as growth inhibition after 48 hrs by sulforhodamine B assay; assay type: functional; conditions: 786-0, 48 h
OVCAR-5 = assay: Antiproliferative activity against human OVCAR5 cells assessed as growth inhibition after 48 hrs by sulforhodamine B assay; assay type: functional; conditions: OVCAR-5, 48 h
IGROV-1 = assay: Antiproliferative activity against human IGROV1 cells assessed as growth inhibition after 48 hrs by sulforhodamine B assay; assay type: functional; conditions: IGROV-1, 48 h
UACC-257 = assay: Antiproliferative activity against human UACC257 cells assessed as growth inhibition after 48 hrs by sulforhodamine B assay; assay type: functional; conditions: UACC-257, 48 h
SK-MEL-5 = assay: Antiproliferative activity against human SK-MEL-5 cells assessed as growth inhibition after 48 hrs by sulforhodamine B assay; assay type: functional; conditions: SK-MEL-5, 48 h
SK-MEL-28 = assay: Antiproliferative activity against human SK-MEL-28 cells assessed as growth inhibition after 48 hrs by sulforhodamine B assay; assay type: functional; conditions: SK-MEL-28, 48 h
M14 = assay: Antiproliferative activity against human M14 cells assessed as growth inhibition after 48 hrs by sulforhodamine B assay; assay type: functional; conditions: M14, 48 h
LOX IMVI = assay: Antiproliferative activity against human LOXIMVI cells assessed as growth inhibition after 48 hrs by sulforhodamine B assay; assay type: functional
SNB-19 = assay: Antiproliferative activity against human SNB19 cells assessed as growth inhibition after 48 hrs by sulforhodamine B assay; assay type: functional; conditions: SNB-19, 48 h
SF-539 = assay: Antiproliferative activity against human SF539 cells assessed as growth inhibition after 48 hrs by sulforhodamine B assay; assay type: functional; conditions: SF-539, 48 h
KM12 = assay: Antiproliferative activity against human KM12 cells assessed as growth inhibition after 48 hrs by sulforhodamine B assay; assay type: functional; conditions: KM12, 48 h
HCT-15 = assay: Antiproliferative activity against human HCT15 cells assessed as growth inhibition after 48 hrs by sulforhodamine B assay; assay type: functional; conditions: HCT-15, 48 h
HCC 2998 = assay: Antiproliferative activity against human HCC2998 cells assessed as growth inhibition after 48 hrs by sulforhodamine B assay; assay type: functional; conditions: HCC 2998, 48 h
NCI-H23 = assay: Antiproliferative activity against human NCI-H23 cells assessed as growth inhibition after 48 hrs by sulforhodamine B assay; assay type: functional; conditions: NCI-H23, 48 h
HOP-92 = assay: Antiproliferative activity against human HOP92 cells assessed as growth inhibition after 48 hrs by sulforhodamine B assay; assay type: functional; conditions: HOP-92, 48 h
A549 = assay: Antiproliferative activity against human A549/ATCC cells assessed as growth inhibition after 48 hrs by sulforhodamine B assay; assay type: functional; conditions: A549, 48 h
MOLT-4 = assay: Antiproliferative activity against human MOLT4 cells assessed as growth inhibition after 48 hrs by sulforhodamine B assay; assay type: functional; conditions: MOLT-4, 48 h
HL-60(TB) = assay: Antiproliferative activity against human HL-60(TB) cells assessed as growth inhibition after 48 hrs by sulforhodamine B assay; assay type: functional; conditions: HL-60, 48 h
BT-549 = assay: Antiproliferative activity against human BT549 cells assessed as growth inhibition after 48 hrs by sulforhodamine B assay; assay type: functional; conditions: BT-549, 48 h
MDA-MB-468 = assay: Antiproliferative activity against human MDA-MB-468 cells assessed as growth inhibition after 48 hrs by sulforhodamine B assay; assay type: functional; conditions: MDA-MB-468, 48 h
[3] = Haemolytic activity in human erythrocytes assessed as induction of hemolysis at 5 mM after 30 mins relative to H202; assay type: cell-based, Erythrocyte; conditions: read-out: Activity
[4] = Haemolytic activity in human erythrocytes assessed as induction of hemolysis at 2.5 mM after 30 mins relative to H202; assay type: cell-based, Erythrocyte; conditions: erythrocytes, read-out: Activity
[5] = Antioxidant activity assessed as DPPH radical scavenging activity incubated in dark for 30 mins by spectrophotometric method relative to control; assay type: functional; set-up: concentration or dose not given beside the values
[6] = Antioxidant activity assessed as hydroxyl radical scavenging activity after 1 hr by salicylic acid-based Fenton reaction assay; assay type: functional
HCT-116 [7] = assay: Induction of apoptosis in human HCT116 cells assessed as increase in caspase 3 mRNA expression at 100 nM after 6 hrs hrs by SYBR green dye-based qRT-PCR analysis relative to control; assay type: functional
HCT-116 [8] = assay: Induction of apoptosis in human HCT116 cells assessed as increase in caspase 9 mRNA expression at 100 nM after 6 hrs hrs by SYBR green dye-based qRT-PCR analysis relative to control; assay type: functional
HCT-116 [9] = assay: Induction of apoptosis in human HCT116 cells assessed as increase in p53 mRNA expression at 100 nM after 6 hrs hrs by SYBR green dye-based qRT-PCR analysis relative to control; assay type: functional

## N=C(N)c1ccc(-c2ccc(-c3ccc(F)cc3)o2)o1
[1]
  GI50: 1470 nM
  LC50: 9550 nM
  TGI: 3460 nM
WI-38
  IC50: 10600 nM
[2]
  Selectivity Index: 7.2
MDA-MB-231
  GI50: 1570 nM
SN12C
  GI50: 1800 nM
RXF 393
  GI50: 1600 nM
CAKI-1
  GI50: 1710 nM
786-0
  GI50: 1660 nM
OVCAR-5
  GI50: 1660 nM
IGROV-1
  GI50: 1580 nM
UACC-257
  GI50: 1980 nM
SK-MEL-5
  GI50: 1560 nM
SK-MEL-28
  GI50: 1630 nM
M14
  GI50: 1230 nM
LOX IMVI
  GI50: 1550 nM
SNB-19
  GI50: 1730 nM
SF-539
  GI50: 1630 nM
KM12
  GI50: 1440 nM
HCT-15
  GI50: 630 nM
HCC 2998
  GI50: 1370 nM
NCI-H23
  GI50: 1930 nM
HOP-92
  GI50: 1210 nM
A549
  GI50: 1650 nM
MOLT-4
  GI50: 1600 nM
HL-60(TB)
  GI50: 1800 nM
BT-549
  GI50: 2270 nM
MDA-MB-468
  GI50: 1360 nM
[3]
  hemolysis at 0.5 h, 5000 µM: 66.3%
[4]
  hemolysis at 0.5 h, 2500 µM: 17.6%
[5]
  inhibition: 9.9%
[6]
  Activity: Active
HCT-116 [7]
  fold change (FC): 3.88
HCT-116 [8]
  fold change (FC): 4.67
HCT-116 [9]
  fold change (FC): 0.96
